Measurements published in patent US20230405028A1 (priority 2020, published 2023).
Like-named read-outs stand apart in the source and are kept apart here.

Legend:
[1] = system: mice; conditions: intraplantar injections (Bandell, 2004); cited from earlier work
[2] = system: rats; conditions: rats (Iwasaki, 2008); cited from earlier work
[3] = system: Human primary small intestinal epithelial cells (HSIEC)
[4] = system: anandamide levels; conditions: chronic, but not acute, administration of 150 mg/kg (Smalheiser, 2019); cited from earlier work
[5] = system: COX-2; test: COX-2 in HSIEC cells treated with TNF-α/IFN-γ (western blot, densitometry); type: cell-based, human; conditions: single agent, escalating doses
Protocol: Cell Culture: Human primary small intestinal epithelial cells (HSIEC), purchased from Cell Biologics were cultured in Epithelial Cell Medium/w Kit. HSIEC cells were incubated at 37° C. in a humidified atmosphere of 5% CO2. HSIEC cells were treated with mycoplasma removal reagent BM-Cyclin (Roche) to ensure mycoplasma negative before treatment.
To do so, COX-2, an enzyme which mediates the bioconversion of arachidonic acid to inflammatory prostaglandins (PGs), was measured via densitometry. GAPDH was used as a reference housekeeping marker for relative densitometry measures. […] Ethanol or DMSO was used, as indicated in the figures, as a vehicle for dilution and as a negative control showing the amount of the inflammatory marker present when inflammation was not induced.
Increasing doses of each molecule of interest, or each combination of molecules of interest, were then distributed to the HSIEC cells treated to induce inflammatory response. Inflammatory markers COX-2 and/or IL-6 were assessed at specific timepoints after induction of inflammation for protein content marker measured via western blot. GAPDH was used as a reference housekeeping marker for relative densitometry measures of protein content.

O=C/C=C/c1ccccc1 [cinnamaldehyde, (2E)-3-phenylprop-2-enal]
nociceptive behavior [1]: cause nociceptive behavior | adrenaline secretions [2]: increasing adrenaline secretions | Cellular Metabolic Activity ([3]; 5 μM, 24 h): 0.183 | Cellular Metabolic Activity ([3]; 5 μM, 48 h): 0.148 | Cellular Metabolic Activity ([3]; 5 μM, 72 h): 0.236 | Cellular Metabolic Activity ([3]; 5 μM, 96 h): 0.423 | Cellular Metabolic Activity ([3]; 5 μM, time 0): 0.026 | Cellular Metabolic Activity ([3]; 10 μM, 24 h): 0.166 | Cellular Metabolic Activity ([3]; 10 μM, 48 h): 0.119 | Cellular Metabolic Activity ([3]; 10 μM, 72 h): 0.160 | Cellular Metabolic Activity ([3]; 10 μM, 96 h): 0.321 | Cellular Metabolic Activity ([3]; 10 μM, time 0): 0.022 | Cellular Metabolic Activity ([3]; 20 μM, 24 h): 0.169 | Cellular Metabolic Activity ([3]; 20 μM, 48 h): 0.095 | Cellular Metabolic Activity ([3]; 20 μM, 72 h): 0.105 | Cellular Metabolic Activity ([3]; 20 μM, 96 h): 0.152 | Cellular Metabolic Activity ([3]; 20 μM, time 0): 0.025 | Cellular Metabolic Activity ([3]; 40 μM, 24 h): 0.171 | Cellular Metabolic Activity ([3]; 40 μM, 48 h): 0.049 | Cellular Metabolic Activity ([3]; 40 μM, 72 h): 0.018 | Cellular Metabolic Activity ([3]; 40 μM, 96 h): 0.015 | Cellular Metabolic Activity ([3]; 40 μM, time 0): 0.026 | Cellular Metabolic Activity ([3]; 80 μM, 24 h): 0.175 | Cellular Metabolic Activity ([3]; 80 μM, 48 h): 0.021 | Cellular Metabolic Activity ([3]; 80 μM, 72 h): 0 | Cellular Metabolic Activity ([3]; 80 μM, time 0): 0.030 | Cellular Metabolic Activity ([3]; 100 μM, 24 h): 0.171 | Cellular Metabolic Activity ([3]; 100 μM, 48 h): 0.016 | Cellular Metabolic Activity ([3]; 100 μM, time 0): 0.027 | Cellular Metabolic Activity ([3]; 200 μM, 24 h): 0.191 | Cellular Metabolic Activity ([3]; 200 μM, 48 h): 0.009 | Cellular Metabolic Activity ([3]; 200 μM, time 0): 0.031 | concentration above which inhibitory effect / significant toxicity (MTT) ([3]; human): over 10 μM

COc1cc(/C=C/C(=O)CC(=O)/C=C/c2ccc(O)c(OC)c2)ccc1O [curcumin, (1E,6E)-1,7-bis(4-hydroxy-3-methoxyphenyl) hepta-1,6-diene-3,5-dione]
Cellular Metabolic Activity ([3]; 1 μM, 24 h): 0.086 | Cellular Metabolic Activity ([3]; 1 μM, 48 h): 0.184 | Cellular Metabolic Activity ([3]; 1 μM, 72 h): 0.375 | Cellular Metabolic Activity ([3]; 1 μM, 96 h): 0.611 | Cellular Metabolic Activity ([3]; 1 μM, time 0): 0.040 | Cellular Metabolic Activity ([3]; 5 μM, 24 h): 0.079 | Cellular Metabolic Activity ([3]; 5 μM, 48 h): 0.148 | Cellular Metabolic Activity ([3]; 5 μM, 72 h): 0.299 | Cellular Metabolic Activity ([3]; 5 μM, 96 h): 0.595 | Cellular Metabolic Activity ([3]; 5 μM, time 0): 0.036 | Cellular Metabolic Activity ([3]; 10 μM, 24 h): 0.070 | Cellular Metabolic Activity ([3]; 10 μM, 48 h): 0.115 | Cellular Metabolic Activity ([3]; 10 μM, 72 h): 0.215 | Cellular Metabolic Activity ([3]; 10 μM, 96 h): 0.466 | Cellular Metabolic Activity ([3]; 10 μM, time 0): 0.036 | Cellular Metabolic Activity ([3]; 20 μM, 24 h): 0.059 | Cellular Metabolic Activity ([3]; 20 μM, 48 h): 0.057 | Cellular Metabolic Activity ([3]; 20 μM, 72 h): 0.060 | Cellular Metabolic Activity ([3]; 20 μM, 96 h): 0.038 | Cellular Metabolic Activity ([3]; 20 μM, time 0): 0.040 | Cellular Metabolic Activity ([3]; 40 μM, 24 h): 0.038 | Cellular Metabolic Activity ([3]; 40 μM, 48 h): 0.026 | Cellular Metabolic Activity ([3]; 40 μM, 72 h): 0.014 | Cellular Metabolic Activity ([3]; 40 μM, 96 h): 0.00 | Cellular Metabolic Activity ([3]; 40 μM, time 0): 0.039 | Cellular Metabolic Activity ([3]; 80 μM, 24 h): 0.042 | Cellular Metabolic Activity ([3]; 80 μM, 48 h): 0.019 | Cellular Metabolic Activity ([3]; 80 μM, 72 h): 0.018 | Cellular Metabolic Activity ([3]; 80 μM, 96 h): 0.005 | Cellular Metabolic Activity ([3]; 80 μM, time 0): 0.041 | anandamide levels in a variety of brain regions [4]: significantly raised

O=C(/C=C/C=C/c1ccc2c(c1)OCO2)N1CCCCC1 [piperine]
doses reducing COX-2 to the greatest extent [5]: 2.5 µM | effect on cell growth / cellular metabolic activity (MTT, words) [3]: could only be studied at very low dose | Cellular Metabolic Activity ([3]; 5 μM, 24 h): 0.077 | Cellular Metabolic Activity ([3]; 5 μM, 48 h): 0.170 | Cellular Metabolic Activity ([3]; 5 μM, 72 h): 0.278 | Cellular Metabolic Activity ([3]; 5 μM, 96 h): 0.517 | Cellular Metabolic Activity ([3]; 5 μM, time 0): 0.035 | Cellular Metabolic Activity ([3]; 10 μM, 24 h): 0.073 | Cellular Metabolic Activity ([3]; 10 μM, 48 h): 0.183 | Cellular Metabolic Activity ([3]; 10 μM, 72 h): 0.271 | Cellular Metabolic Activity ([3]; 10 μM, 96 h): 0.438 | Cellular Metabolic Activity ([3]; 10 μM, time 0): 0.026 | Cellular Metabolic Activity ([3]; 20 μM, 24 h): 0.075 | Cellular Metabolic Activity ([3]; 20 μM, 48 h): 0.166 | Cellular Metabolic Activity ([3]; 20 μM, 72 h): 0.268 | Cellular Metabolic Activity ([3]; 20 μM, 96 h): 0.445 | Cellular Metabolic Activity ([3]; 20 μM, time 0): 0.022 | Cellular Metabolic Activity ([3]; 40 μM, 24 h): 0.069 | Cellular Metabolic Activity ([3]; 40 μM, 48 h): 0.169 | Cellular Metabolic Activity ([3]; 40 μM, 72 h): 0.226 | Cellular Metabolic Activity ([3]; 40 μM, 96 h): 0.423 | Cellular Metabolic Activity ([3]; 40 μM, time 0): 0.025 | Cellular Metabolic Activity ([3]; 80 μM, 24 h): 0.068 | Cellular Metabolic Activity ([3]; 80 μM, 48 h): 0.171 | Cellular Metabolic Activity ([3]; 80 μM, 72 h): 0.224 | Cellular Metabolic Activity ([3]; 80 μM, 96 h): 0.391 | Cellular Metabolic Activity ([3]; 80 μM, time 0): 0.026 | Cellular Metabolic Activity ([3]; 100 μM, 24 h): 0.071 | Cellular Metabolic Activity ([3]; 100 μM, 48 h): 0.175 | Cellular Metabolic Activity ([3]; 100 μM, 72 h): 0.248 | Cellular Metabolic Activity ([3]; 100 μM, 96 h): 0.410 | Cellular Metabolic Activity ([3]; 100 μM, time 0): 0.030 | Cellular Metabolic Activity ([3]; 200 μM, 24 h): 0.071 | Cellular Metabolic Activity ([3]; 200 μM, 48 h): 0.171 | Cellular Metabolic Activity ([3]; 200 μM, 72 h): 0.243 | Cellular Metabolic Activity ([3]; 200 μM, 96 h): 0.426 | Cellular Metabolic Activity ([3]; 200 μM, time 0): 0.027 | Cellular Metabolic Activity ([3]; 400 μM, 24 h): 0.068 | Cellular Metabolic Activity ([3]; 400 μM, 48 h): 0.191 | Cellular Metabolic Activity ([3]; 400 μM, 72 h): 0.187 | Cellular Metabolic Activity ([3]; 400 μM, 96 h): 0.255 | Cellular Metabolic Activity ([3]; 400 μM, time 0): 0.031
